Data taken from paper PMC8042727, “Apoptosis-like cell death upon kinetoplastid induction by compounds isolated from the brown algae Dictyota spiralis” (Parasites & Vectors, 2021).

Tests used:
Type in all cases: cell-based
[1] = system: Leishmania amazonensis amastigotes; assay: Anti-amastigotes assay (intra-macrophagic stage, J774A.1); settings: for Selectivity index: CC50 murine macrophages / IC50 amastigote; for IC50: J774.A1, Leishmania amazonensis, intracellular in J774A.1, read-out: IC50: amastigote
Procedure: The three molecules 1-3 were tested against the intra-macrophagic stage of L. amazonensis as previously described. Briefly, in a 96-well, flat-bottom plate, macrophages of the J774A.1 cell line (American Type Culture Collection #TIB-67) were cultured at a density of 2 × 10^5 cells/ml in RPMI 1640 medium supplemented with 10% heat-inactivated FBS and incubated for 1 h at 37 °C in a 5% CO2 atmosphere to allow almost complete attachment of the cells. The macrophages were then infected with L. amazonensis promastigotes in the stationary phase (7-day-old culture) at a ratio of 1:10 (macrophage:parasite) at a concentration of 2 × 10^6 cells/ml and incubated at 37 °C in 5% CO2 for 24 h. Wells were washed with medium to remove external promastigotes. Thereafter, the infected macrophages were treated with the serially diluted concentrations of the pure compounds for 24 h, following which the medium was removed carefully and replaced by 30 μl of new medium containing 0.05% sodium dodecyl sulfate and the plate shaken for 30 s. Subsequently, 170 μl of Schneider’s medium was added to each well to give a final volume of 200 μl, and 20 μl of AlamarBlue® was added to the plate; the plate was then incubated at 26 °C for 72 h, following which the plates were analyzed using the same protocol as for the promastigotes assay.

Leishmania amazonensis = assay: Oxidative stress / ROS accumulation (CellROX Deep Red); settings: L. amazonensis, IC90, 24 h
Procedure: The reagent used for this assay was a fluorogenic probe to measure cellular oxidative stress upon oxidation by reactive oxygen species (ROS). To perform the test, cells were incubated with the compounds to be tested, at IC90 for 24 h. The cells were centrifuged and resuspended in a volume of 50 μl, following which CellROX™ Deep Red oxidative stress reagent (Thermo-Fisher Scientific) was added to 96-well plates at […]. The plates were then incubated for 30 min at 37 °C. After incubation, the results were analyzed by cell imaging using the Evos cell imaging system. Cells treated with different compounds were compared with untreated control cells and the positive control. Fluorescence intensity was also measured using the Enspire multimode plate reader at excitation/emission wavelengths of 640/665 nm. Accumulation ROS at the cellular level is a good indicator of oxidative stress and is precursor to a chain reaction leading damage at the cellular level to proteins, nucleic acids, lipids, membrane and organelles. These cellular alterations can lead to activation of the cell death process. As such, ROS play an important role in cell signaling and the apoptosis pathway. An intracellular excess of ROS can be detected by the cell-permeable CellROX™ Deep Red reagent, which is a fluorogenic ROS sensor.

[2] = system: Leishmania amazonensis promastigotes; assay: Anti-promastigotes assay (AlamarBlue, 72 h); settings: for IC50: 72 h, read-out: IC50: promastigote; for IC90: nonlinear regression of AlamarBlue curve, read-out: IC90 Leishmania amazonensis: promastigote
Procedure: Experiments including in vitro activity assays of isolated compounds 1–3 were performed against the promastigote and amastigote stages of Leishmania amazonensis (MHOM/BR/77/LTB0016) and the epimastigote stage of Trypanosoma cruzi (Y strain). Promastigotes of L. amazonensis were cultured in Schneider’s medium (Sigma-Aldrich, St. Louis, MO, USA). Typanosoma cruzi strain Y was cultured in liver Infusion tryptose (LIT) medium.
The bioassay was performed using the AlamarBlue® method as previously described. Promastigotes of L. amazonensis were grown at 26 °C in RPMI 1640 modified medium (Gibco BRL Life Technologies Inc., Gaithersburg, MD, USA) and supplemented with 10% heat-inactivated fetal bovine serum (FBS). Cultures in the logarithmic phase were seeded in sterilized 96-well microtiter plates (Corning™, Corning, NY, USA) (10^6 parasites/ml) containing the samples dissolved in 1% DMSO at the suitable concentration to be tested in serial dilutions, and Leishmania medium (RPMI 1640) was used to reach a final volume of 200 μl per well; then 10% of AlamarBlue® was added to the entire plate. After an incubation of 72 h, the plate was checked visually using an inverted microscope, then analyzed using an Enspire multimode plate reader (PerkinElmer, Inc., Waltham, MA, USA) at excitation and emission wavelengths of 570 and 585 nm, respectively. Dose–response curves were plotted, and the concentration at which one half of the maximal inhibitory effect was obtained (IC50) was determined. The analyses were performed in triplicate.
Hoechst dye is a blue-fluorescent dye that stains condensed chromatin of apoptotic cells. To detect DNA condensation, the chromatin condensation/dead cell apoptosis kit was used (Invitrogen, Thermo Fisher Scientific, Waltham, MA, USA). Cells were incubated in the presence of the compounds to be tested at IC90. The IC90 values were determined using nonlinear regression of the AlamarBlue® curve. After 24 h of incubation, cells were harvested and resuspended in medium, following which 1 μl of Hoechst 33342 stock solution was added to parasites and incubated for 20 min. Results were analyzed by cell imaging using the Evos FL cell imaging system (Thermo Fisher Scientific). The experiments were repeated using a double-stain apoptosis detection kit (Hoechst 33342/PI; Thermo Fisher Scientific). […] A positive control was also tested: miltefosine (L. amazonensis) and benznidazole (T. cruzi).

[3] = Cytotoxicity on macrophages (AlamarBlue, 24 h); settings: mouse, J774A.1 macrophages, J774A.1, 24 h, read-out: CC50: murine macrophages
Procedure: Cytotoxicity of the tested molecules was evaluated after 24 h using macrophages of the murine cell line J774.A1 (American Type Culture Collection #TIB-67). The cells were maintained in DMEM medium at 37 °C in a 5% CO2 humidified incubator. The viability of the macrophages was determined with the AlamarBlue assay and the emitted fluorescence was assayed in an Enspire microplate reader (PerkinElmer Inc.) at 570/585 nm. Briefly, 50 µl of macrophages was placed in a 96-well flat bottom plate at a density of 2 × 10^5/ml in RPMI medium supplemented with 10% FBS without phenol. Cells were allowed to adhere for 15 min, and their progress was checked using a Leika inverted microscope (Leika Camera AG, Wetzlar, Germany). At the same time, a serially dilution of the test compounds was made in a deep 96-well plate with the same medium, and then 50 µl of each serially diluted molecule was added to each well of the 96-well flat bottom plate. Finally, 10% of AlamarBlue was added to each well. The plates were incubated at 37 °C in 5% CO2 for 24 h. Dose–response curves were plotted and the 50% cytotoxic concentrations (CC50) were obtained. The analyses were performed in triplicate.

## CC(C)=CCC[C@](C)(O)[C@@H]1CC[C@@H](C)[C@@H]2CC=C(C)[C@H]2[C@@H]1O [Compound 1, pachydictyol C]
[1]
  Selectivity index: 37.76
  IC50: 0.97 ± 0.13 µM
Leishmania amazonensis
  ROS accumulation (fluorescence vs negative control): more remarkable
[2]
  IC50: 18.9 ± 5.28 µM
  IC90: 39.5 µM
[3]
  CC50 at 24 h: 37 ± 2.74 µM

## C=C1CC[C@@H]([C@@](C)(O)CCC=C(C)C)[C@@H](O)[C@@H]2C(C)=CC[C@@H]12 [Compound 2, dictyol E]
[1]
  Selectivity index: 25.56
  IC50: 2.03 ± 0.22 µM
Leishmania amazonensis
  ROS accumulation (fluorescence vs negative control): slight increase in fluorescence but the increase was not significant
[2]
  IC50: 18.9 ± 0.42 µM
  IC90: 34.9 µM
[3]
  CC50 at 24 h: 52.1 ± 6.63 µM

## C=C(C)[C@H]1CC[C@]2(C)C[C@@H]3O[C@@]3(C)CC/C=C(\C)CC[C@@H]12 [Compound 3, 3,4-epoxy-7,18-dolabelladiene]
[1]
  Selectivity index: 18.02
  IC50: 3.88 ± 0.17 µM
Leishmania amazonensis
  ROS accumulation (fluorescence vs negative control): more remarkable
[2]
  IC90: 74.9 µM
[3]
  CC50 at 24 h: 69.98 ± 0.13 µM
